Measurements reported in patent publication US20040033595A1, “Conditionally replicating vectors for inhibiting viral infections” (priority 2001, published 2004).

What was measured:
Human CD4+ T cells = assay: Sensitivity of human CD4+ T cells to BG and BCNU (expansion in culture); type: cell-based; settings: for dose dependence of CD4 cell killing / toxicity: increasing dose
Protocol: CD14 depleted CD4+ cells were purified from peripheral blood with or without cytokine mobilization. […] Under appropriate conditions in the absence of […] and BCNU, CD4+ cells can be expanded up to 100 fold over 10 days in culture. Doses tested were 0, 0.2, 0.5, 2, 5, 10, 20, 30, and 40 μM BG and 0, 2, 5, 10, 20, 30, and 40 μM BCNU. A series of three experiments were performed.

[1] = system: modified U5-containing crHIV RNA; assay: In vitro ribozyme cleavage of radiolabeled modified crHIV U5 RNA (PAGE, autoradiography); type: biochemical; settings: target to ribozyme molar ratio 1:2, 37° C. 5 min
Protocol: (§1) To confirm the resistance to ribozyme cleavage of the crHIV vectors, in vitro transcription was performed. To accomplish this, the ribozyme sequences were cloned into the Xho I site of pBluescript KSII (Stratagene, La Jolla, Calif.). A 0.21 kilobase pair (kb) Bgl II fragment containing the mutated crHIV U5 region similarly was excised from the crHIV vector and inserted into the Bam HI site of pBluescript KSII. The resultant modified pBluescript KSII vectors were linearized with Bss HII prior to in vitro transcription. A similar plasmid expressing wild-type HIV U5 RNA (described in Myers et al. (1994), supra) was employed as a control. It was linearized with Eco RI prior to in vitro transcription.
(§2) Radiolabeled U5 HIV RNA and ribozyme RNA were produced by in vitro transcription of the vectors, as previously described (Dropulic' et al. (1992), supra). The radiolabeled transcripts were incubated together (at a target to ribozyme molar ratio of 1:2) in 1×transcription buffer containing 40 mM Tris-HCl, pH 7.5, 6 mM MgCl2, 2 mM Spermidine, and 10 mM NaCl. The samples were heated to 65° C., and then cooled to 37° C. for 5 min prior to the addition of stop buffer solution containing 95% formamide, 20 mM EDTA, 0.05% Bromophenol Blue, and 0.05% Xylene Cyanol FF. The products' were then resolved by denaturing polyacrylamide gel electrophoresis (PAGE), and detected by autoradiography.

wild-type U5-HIV RNA = assay: In vitro ribozyme cleavage of radiolabeled wild-type U5 HIV RNA (PAGE, autoradiography); type: biochemical; settings: target to ribozyme molar ratio 1:2, 37° C. 5 min
Protocol: as §1, §2

HIV = settings: human, in vivo; cited from earlier work

## O=NN(CCCl)C(=O)NCCCl [BCNU, 1,3-bis(2-chloroethyl)-1-nitrosourea]
Human CD4+ T cells; BCNU alone
  growth delay of CD4+ cells: did not result in growth delay
Human CD4+ T cells
  dose dependence of CD4 cell killing / toxicity: toxicity to CD4 cells increased with the BCNU dose

## CACACAACACTGATGAGGCCGAAAGGCCGAAACGGGCACA (expressed or natural sequence) [the +115 ribozyme]
[1]
  cleavage of modified U5-containing crHIV RNA: cleavage products were not detected
wild-type U5-HIV RNA
  cleavage of wild-type U5-HIV RNA: cleavage was readily observed

## Nc1nc(OCc2ccccc2)c2nc[nH]c2n1 [BG, O^6-benzylguanine]
Human CD4+ T cells
  dose dependence of CD4 cell killing / toxicity: did not increase cell killing

## Nc1ccn([C@H]2CC[C@@H](CO)O2)c(=O)n1 [ddC]
HIV
  range virustatic in most patients: 0.005-0.25 mg/kg body weight
